Columns and labels:
[1] = molecular target: T1, β5 subunit of the human constitutive proteasome (CPS) (Homo sapiens, UniProt P28074); assay: β5 inhibition assay, human constitutive proteasome (Suc-LLVY-AMC); type: biochemical; details: IC50 class, Suc-LLVY-AMC substrate
T1 construct: purchased Boston Biochem E-360
Experimental: The enzymatic activity of the β5 subunit of the human constitutive proteasome (CPS) is analyzed. In another assay, which differs from the assay of the human constitutive proteasome only in using the human immunoproteasome (IPS) the enzymatic activity of the β5 subunit of the human immunoproteasome (IPS) is analyzed. […] Inhibition is indicated as IC50 [nM] (“-”=not measured).

[2] = molecular target: T2, β5 subunit of the human immunoproteasome (IPS) (Homo sapiens, UniProt P28062); assay: β5 inhibition assay, human immunoproteasome (Suc-LLVY-AMC); type: biochemical; details: IC50 class, Suc-LLVY-AMC substrate
T2 construct: purchased Boston Biochem E-370
How it was run: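 Human immunoproteasome (1 nM final) was preincubated 10 min at RT with compound in 100 mM HEPES pH 7.5, 50 mM NaCl, 0.02% SDS, 1 mM DTT. Suc-LLVY-AMC (22.6 μM final) was then added for 4 h at RT in the dark. After stopping with 1 μM bortezomib, AMC fluorescence was read (ex 355/em 460 nm).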

[3] = system: A549 (human lung carcinoma cell line); assay: Glo assay of A549 cells (Table 3; ProteasomeGlo plating scheme); type: cell-based; details: Homo sapiens; A549 cells; read-out: PGLo A549
How it was run: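 After acoustic compound transfer, plates incubate 105 min (37° C., 5% CO2). Proteasome-Glo reagent containing Suc-LLVY-Glo substrate is added, plates are shaken, then luminescence is measured after 10-15 min to derive IC50 [nM]. Staurosporine and DMSO serve as controls.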

[4] = system: Hs 746T (human gastric carcinoma cell line); assay: 48 hr CTG viability assay, Hs 746T; type: cell-based; details: Hs746T, 48 hr CTG, read-out: Hs 746T IC50
Experimental: (§1) A viability assay was conducted for 48 hours to evaluate the inhibition of cancer cell growth by proteasome inhibitors. Briefly, the candidate cell line was plated with a 96-well plate following density of cells, respectively. 6×10^3 Cells/well for A2780 (human ovarian cancer cell line) and MDA-MB-468 (breast carcinoma), 8×10^3 Cells/well for Hs746T (human gastric carcinoma cell line), 1.1×10^4 Cells/well for MM1 S and RPMI 8226 (multiple myeloma). After 24 hours, the cells were treated with various concentrations of the compound (ranging from 0.0015 uM to 10 uM). […] After 48 hours of incubation at 37° C., 5% CO2 incubator, cells were analyzed for viability using the CellTiter-Glo Luminescent Cell Viability assay (Promega, Cat #G7570). All viability assays were performed in duplicate and Luminescence was read using an Envision (Perkin Elmer, USA). Data were analyzed using XLfit software. […] (human gastric carcinoma cell line), MM1 S (B lymphoblast cell line), and RPMI 8226 (B lymphocyte cell line, multiple myeloma). Inhibition is indicated as IC50 [nM] (“-”=not measured).

[5] = system: MM1 S (B lymphoblast cell line); assay: 48 hr CTG viability assay, MM1S; type: cell-based; details: Homo sapiens, 48 hr CTG, read-out: MM1S IC50
Experimental: as §1

[6] = system: RPMI 8226 (B lymphocyte cell line, multiple myeloma); assay: 48 hr CTG viability assay, RPMI 8226; type: cell-based; details: Homo sapiens, RPMI-8226; 48 hr CTG; read-out: RPMI-8226 IC50
Experimental: as §1

| Structure (SMILES) | IC50 [1] [nM] | IC50 [2] [nM] | IC50 [3] [nM] | IC50 [4] [nM] | IC50 [5] [nM] | IC50 [6] [nM] |
| --- | --- | --- | --- | --- | --- | --- |
| Cc1ccc2cc1CNC(=O)[C@H](C1Cc3ccccc3C1)NC(=O)[C@@H](NC(=O)Cc1cn3ccsc3n1)CC(=O)N1CCCC(CCO2)C1 (stereo partly drawn) [Compound 602, N-((9S,12S)-9-(2,3-dihydro-1H-inden-2-yl)-5^4-methyl-8,11,14-trioxo-4-oxa-7,10-diaza-1(3,1)-piperidina-5(1,3)-benzenacyclotetradecaphane-12-yl)-2-(imidazo[2,1-b]thiazol-6-yl)acetamide] | < 100 | < 100 | < 100 | < 100 | < 100 | < 100 |
| COc1cccc(COCCC(=O)N[C@H]2CC(=O)N3CCCC(CCOc4ccc(C)c(c4)CNC(=O)[C@H](CCc4ccccc4)NC2=O)C3)c1 (stereo partly drawn) [Compound 585, 3-((3-methoxybenzyl)oxy)-N-((9S,12S)-5^4-methyl-8,11,14-trioxo-9-phenethyl-4-oxa-7,10-diaza-1(3,1)-piperidina-5(1,3)-benzenacyclotetradecaphane-12-yl)propanamide] | < 100 | < 100 | < 100 | < 100 | < 100 | < 100 |
| CC(=O)c1ccc(CC(=O)N[C@H]2CCC(=O)NCCCCOc3ccc(C)c(c3)CNC(=O)[C@H](CCc3ccccc3)NC2=O)cc1 [Compound 707, 2-(4-acetylphenyl)-N-((11S,14S)-1^4-methyl-8,12,15-trioxo-1^4-phenethyl-2-oxa-7,13,16-triaza-1(1,3)-benzenacycloheptadecaphane-11-yl)acetamide] | < 100 | < 100 | < 100 | < 100 | < 100 | < 100 |
| Cc1ccc2cc1CNC(=O)[C@H](CCc1ccncc1)NC(=O)[C@@H](NC(=O)Cc1ccccc1F)CC(=O)N1CCCC(CCO2)C1 (stereo partly drawn) [Compound 737, 2-(2-fluorophenyl)-N-((9S,12S)-5^4-methyl-8,11,14-trioxo-9-(2-(pyridin-4-yl)ethyl)-4-oxa-7,10-diaza-1(3,1)-piperidina-5(1,3)-benzenacyclotetradecaphane-12-yl)acetamide] | < 100 | < 100 | < 100 | < 100 | < 100 | < 100 |
| Cc1ccc2cc1CNC(=O)[C@H](CCc1ccccc1)NC(=O)[C@@H](NC(=O)CCNCCC1CC3CCC1C3)CC(=O)N1CCCC(CCO2)C1 (stereo partly drawn) [Compound 698, 3-((2-(bicyclo[2.2.1]heptan-2-yl)ethyl)amino)-N-((9S,12S)-5^4-methyl-8,11,14-trioxo-9-phenethyl-4-oxa-7,10-diaza-1(3,1)-piperidina-5(1,3)-benzenacyclotetradecaphane-12-yl)propanamide] | < 100 | < 100 | < 100 | < 100 | < 100 | < 100 |
| Cc1ccc2cc1CNC(=O)[C@H](CCc1ccccc1)NC(=O)[C@@H](NC(=O)CCNC1CCCC1)CC(=O)N1CCCC(CCO2)C1 (stereo partly drawn) [Compound 675, 3-(cyclopentylamino)-N-((9S,12S)-5^4-methyl-8,11,14-trioxo-9-phenethyl-4-oxa-7,10-diaza-1(3,1)-piperidina-5(1,3)-benzenacyclotetradecaphane-12-yl)propanamide] | < 100 | < 100 | < 100 | < 100 | < 100 | < 100 |
| Cc1cn([C@H]2CC(=O)N3CCCC(CCOc4ccc(C)c(c4)CNC(=O)[C@H](CCc4ccccc4)NC2=O)C3)nn1 (stereo partly drawn) [Compound 740, (9S,12S)-5^4-methyl-12-(4-methyl-1H-1,2,3-triazol-1-yl)-9-phenethyl-4-oxa-7,10-diaza-1(3,1)-piperidina-5(1,3)-benzenacyclotetradecaphane-8,11,14-trione] | < 100 | < 100 | 100 to 500 | 1000 to 5000 | 100 to 500 | 100 to 500 |
| Cc1ccc2cc1CNC(=O)[C@H](CCc1ccccc1)NC(=O)[C@@H](NC(=O)C13CC(O)(C1)C3)CC(=O)N1CCCC(CCO2)C1 (stereo partly drawn) [Compound 655, 3-hydroxy-N-((9S,12S)-5^4-methyl-8,11,14-trioxo-9-phenethyl-4-oxa-7,10-diaza-1(3,1)-piperidina-5(1,3)-benzenacyclotetradecaphane-12-yl)bicyclo[1.1.1]pentane-1-carboxamide] | < 100 | < 100 | < 100 | < 100 | < 100 | < 100 |
| Cc1ccc2cc1CNC(=O)[C@H](CCc1ccccc1)NC(=O)[C@@H](NC(=O)CCOC1CCCC1)CC(=O)N1CCCC(CCO2)C1 (stereo partly drawn) [Compound 629, 3-(cyclopentyloxy)-N-((9S,12S)-5^4-methyl-8,11,14-trioxo-9-phenethyl-4-oxa-7,10-diaza-1(3,1)-piperidina-5(1,3)-benzenacyclotetradecaphane-12-yl)propanamide] | < 100 | < 100 | < 100 | < 100 | < 100 | < 100 |
| Cc1ccc2cc1CNC(=O)[C@H](CCc1ccccc1)NC(=O)[C@@H](NC(=O)CCOCC1CCCC1)CC(=O)N1CCCC(CCO2)C1 (stereo partly drawn) [Compound 625, 3-(cyclopentylmethoxy)-N-((9S,12S)-5^4-methyl-8,11,14-trioxo-9-phenethyl-4-oxa-7,10-diaza-1(3,1)-piperidina-5(1,3)-benzenacyclotetradecaphane-12-yl)propanamide] | < 100 | < 100 | < 100 | < 100 | < 100 | < 100 |
| Cc1ccc2cc1CNC(=O)[C@H](CCc1cccnc1)NC(=O)[C@@H](NC(=O)Cc1ccc(N)cc1C)CC(=O)N1CCCC(CCO2)C1 (stereo partly drawn) [Compound 645, 2-(4-amino-2-methylphenyl)-N-((9S,12S)-5^4-methyl-8,11,14-trioxo-9-(2-(pyridin-3-yl)ethyl)-4-oxa-7,10-diaza-1(3,1)-piperidina-5(1,3)-benzenacyclotetradecaphane-12-yl)acetamide] | < 100 | < 100 | < 100 | < 100 | < 100 | < 100 |
| Cc1ccc2cc1CNC(=O)[C@H](CCc1ccccc1)NC(=O)[C@@H](NC(=O)CCNCc1ccc(OCC3CCCCC3)cc1)CC(=O)N1CCCC(CCO2)C1 (stereo partly drawn) [Compound 706, 3-((4-(cyclohexylmethoxy)benzyl)amino)-N-((9S,12S)-5^4-methyl-8,11,14-trioxo-9-phenethyl-4-oxa-7,10-diaza-1(3,1)-piperidina-5(1,3)-benzenacyclotetradecaphane-12-yl)propanamide] | < 100 | < 100 | < 100 | < 100 | < 100 | < 100 |
| Cc1ccc2cc1CNC(=O)[C@H](CCc1ccccc1)NC(=O)[C@@H](NC(=O)CCOCCCC1CC1)CC(=O)N1CCCC(CCO2)C1 (stereo partly drawn) [Compound 626, 3-(3-cyclopropylpropoxy)-N-((9S,12S)-5^4-methyl-8,11,14-trioxo-9-phenethyl-4-oxa-7,10-diaza-1(3,1)-piperidina-5(1,3)-benzenacyclotetradecaphane-12-yl)propanamide] | < 100 | < 100 | < 100 | < 100 | < 100 | < 100 |
| Cc1ccc2cc1CNC(=O)[C@H](CCc1ccccc1)NC(=O)[C@@H](NC(=O)CCOC1CC3(C1)CN(C)C3)CC(=O)N1CCCC(CCO2)C1 (stereo partly drawn) [Compound 710, 3-((2-methyl-2-azaspiro[3.3]heptan-6-yl)oxy)-N-((9S,12S)-5^4-methyl-8,11,14-trioxo-9-phenethyl-4-oxa-7,10-diaza-1(3,1)-piperidina-5(1,3)-benzenacyclotetradecaphane-12-yl)propanamide] | < 100 | < 100 | < 100 | < 100 | < 100 | < 100 |
